Laboratory results reported in PMC8433837, “(+)-Usnic Acid as a Promising Candidate for a Safe and Stable Topical Photoprotective Agent” (Molecules, 2021).
Read-outs that look alike come from different tables or passages of the source. Blank lines part the entries; values can stand above or below the compound they belong to.

Experiments:
[1] = skin-PAMPA permeability assay; assay type: in vitro ADME; settings: for Papp at 2 µg/mL: concentration 2 µg/mL; for Papp at 4 µg/mL: concentration 4 µg/mL
Protocol: The skin-PAMPA (parallel artificial membrane permeability assay) method was used, as described previously, to determine the permeability of the tested usnic acid enantiomers. The model consists of a two-chamber PAMPA sandwich, with 96 wells each. Before the experiment, the top plate, with the lipid-impregnated skin-mimetic membrane, was hydrated overnight with the hydration solution (200 µL per well). The tested substances were added at concentrations of 2 and 4 µg/mL. Each experiment was repeated at least three times, using six replicates on each plate, and the results were presented as mean ± SD. The amount of permeated active compounds was determined by spectroscopic analysis (Multiskan GO microplate reader, Thermo Scientific MaxQ 4450, Waltham, MA, USA), with a wavelength of 290 nm. For the calibration curve, stock solutions in the range of 12.5–150 µg/mL were prepared.
The apparent permeability coefficients (Papp) were calculated using the following equation:(1) Papp=−ln(1−CA/Cequilibrium)/S×(1/VD+1/VA)×t where VD = donor volume, VA = acceptor volume, Cequilibrium = equilibrium concentration, Cequilibrium=CD×VD+CA×VA/VD+VA , CD = donor concentration, CA = acceptor concentration, S = membrane area, and t = incubation time (in seconds). Compounds with Papp < 1 × 10^−6 cm/s are classified as having low permeability, and those with Papp > 1 × 10^−6 cm/s as highly permeable compounds.

[2] = Ultraviolet spectroscopy in ethanol solutions; assay type: physicochemical; settings: ethanol solution; for E1.1 (λmax): extinction at 1 cm path length and 1% concentration; for ‹E1.1mean›: mean specific extinction 290 to 400 nm
Protocol: Spectra with a scan range of 250–400 nm were recorded in 30 µM ethanol solutions, in 1 cm path length, with 1.5 mL quartz cuvettes on a U-2800 double-beam spectrophotometer (Hitachi, Tokyo, Japan) controlled using UV Solution version 2.2 software. The molar extinction coefficient at maximum absorption (εmax) of the tested compounds was determined in ethanol as the slope of the linear regression of absorbance vs. the concentration of the tested compound (from 10 to 50 µM). The E1,1 coefficient was calculated using the formula: E1,1=ε[L/mol cm]× 10[g/L]/Mg/mol] × 1[cm] where ‹E1,1›mean value is a mean value of the specific extinction over the spectral range from 290 to 400 nm.

fibroblasts = tested on: fibroblasts; design: method as in PMID 28095330; settings: previous study; cited from earlier work
HDF cells = tested on: HDF cells; design: method as in PMID 31282672; settings: cited from earlier work
[3] = tested on: HaCaT human skin keratinocytes; experiment: LDH viability test, HaCaT keratinocytes; assay type: cell-based
Protocol: (§1) Normal human skin keratinocytes (HaCaT), melanocytes (HEM), and fibroblasts (HDF) were grown at 37 °C in a 5% CO2 atmosphere, with relative humidity, on high-glucose DMEM (HaCaT, HDF), or melanocyte growth medium (HEM), supplemented with 10% fetal bovine serum (FBS) and antibiotics. Before the experiment, cells were seeded onto 96-well plates (1.5 × 10^4 cells/well) for 24 h. Then, the culture medium was replaced with the same medium, containing 2–100 µg/mL of the tested substances, and incubated for 24, 48, or 72 h. LDH release was measured as described previously. Briefly, a proper quantity of a reagent mixture was added to the cell supernatants, and after 30 min the absorbance was measured at 490 nm (the reference wavelength 600 nm) with a BioTek Synergy microplate reader (BioTek Instruments Inc., Winooski, VT, USA). Cytotoxicity was calculated as follows: ((Asample − Acontrol)/(Ama − Acontrol)) × 100; where Asample = the absorbance value for the cells incubated with the tested substances., Acontrol = the absorbance value for untreated, control cells (spontaneous LDH release), and Amax = the absorbance value in Triton-X100-lysed cells (maximum LDH release).
(§2) Each experiment was performed in triplicate, and the results were presented as mean ± SD.

[4] = tested on: Human epidermal melanocytes (HEM); experiment: LDH viability test, HEM melanocytes; assay type: cell-based; settings: Melanocyte, HEM melanocytes (remaining cell lines)
Protocol: as §1, §2

dermal fibroblasts (HDF) = experiment: LDH viability test, HDF fibroblasts; assay type: cell-based; settings: Homo sapiens, Fibroblast, HDF fibroblasts (remaining cell lines)
Protocol: as §1, §2

HaCaT cells = settings: cited from earlier work
HEM cells = tested on: HEM cells; design: method as in PMID 32092663; settings: cited from earlier work
[5] = design: method as in PMID 28704942; settings: different test for the evaluation; cited from earlier work
irradiated guinea pigs = tested on: irradiated guinea pigs; design: method as in earlier work; settings: cited from earlier work
human volunteers = tested on: human volunteers; design: method as in PMID 12468208; settings: versus reference Nivea sun spray (SPF 5); cited from earlier work
[6] = design: method as in doi:10.1016/S1010-6030(98)00368-2; settings: three-week exposure, 12 h/day natural sunlight + 12 h/day incubator with light source; cited from earlier work
[7] = design: method as in PMID 24238180; settings: cited from earlier work

Compound: CC(=O)C1=C(O)C=C2Oc3c(C(C)=O)c(O)c(C)c(O)c3[C@@]2(C)C1=O [(+)-usnic acid]
- Papp at 2 µg/mL [1]: 7.53 ± 1.25 ×10⁻⁶ cm/s
- Papp at 4 µg/mL [1]: 7.9 ± 0.65 ×10⁻⁶ cm/s
- εmax [2]: 21 120 M^−1 cm^−1
- λmax [2]: 281 nm
- E1.1 (λmax) [2]: 613
- ‹E1.1mean› [2]: 76
- IC50 (fibroblasts): > 40 µg/mL
- IC50 (HDF cells; conversion of > 10 µM): about 3.5 µg/mL
- IC50 (HDF cells; read-out: IC50): > 10 µM

Compound: CC(=O)C1=C(O)C=C2Oc3c(C(C)=O)c(O)c(C)c(O)c3[C@]2(C)C1=O [(−)-usnic acid]
- Papp at 2 µg/mL [1]: 7.46 ± 1.12 ×10⁻⁶ cm/s
- Papp at 4 µg/mL [1]: 8.28 ± 1.33 ×10⁻⁶ cm/s
- IC50 ([3]; 48 h): 80.8 µg/mL
- IC50 ([3]; 72 h): 70.1 µg/mL
- IC50 [4]: > 100 µg/mL
- IC50 (dermal fibroblasts (HDF)): > 100 µg/mL

- εmax [2]: 13 650 M^−1 cm^−1
- λmax [2]: 302 nm
- E1.1 (λmax) [2]: 378
- ‹E1.1mean› [2]: 141
Compound: CCCCC(CC)COC(=O)C(C#N)=C(c1ccccc1)c1ccccc1 (centres unmarked) [octocrylene, 2-ethylhexyl 2-cyano-3,3-diphenylacrylate, reference compound]

Compound: CC(=O)c1c(O)c(C)c(O)c2c1OC1=CC(=O)C(C(C)=O)C(=O)C12C (centres unmarked) [usnic acid, 2,6-diacetyl-7,9-dihydroxy-8,9b-dimethyl-1,3(2H,9bH)-dibenzofurandione]
- IC50 (HaCaT cells; conversion of the µM value): about 64 µg/mL
- IC50 (HaCaT cells; read-out: IC50): 186 ± 4.8 µM
- IC50 (HEM cells; conversion of the µM value): about 2.4 µg/mL
- IC50 (HEM cells; read-out: IC50): 6.9 µM
- PF UVA [5]: 1.8
- SPF [5]: 3.9
- SPF as compared to the reference (homosalate) (irradiated guinea pigs): two times higher
- effectiveness in sun protection (human volunteers): comparable to a reference Nivea sun spray
- stability of methanol solution exposed to light [6]: wholly degraded

Compound: dimethicodiethylbenzalmalonate
- E1,1 value [7]: ~ 150
